For data set [1], the system named is MacroNB cells. Put plainly: Trypan blue exclusion assay, MacroNB cells. In kind it is cell-based, human. The following applies: incubation with HBB, results not shown. On the procedure: (§1) Neuroblastoma cells were seeded (3×10^4 per well) in a 96-well flat-bottomed tissue culture plate. After an incubation of 24 hr, cells were washed and incubated with the relevant factors (detailed in the following sections) diluted in starvation medium (RPMI-1640 containing 5% bovine serum albumin (BSA); Biological Industries, Kibbutz Beit Haemek, Israel; Sigma-Aldrich). Cell viability under normal conditions (starvation medium containing BSA) or after incubation with the relevant factors was monitored after 72 hr using an XTT (XTT cell proliferation kit; Biological Industries) or MTS-based (CellTiter 96® AQueous One Solution Cell Proliferation Assay; Promega) viability assays according to manufacturer instructions. Cells were also counted using the trypan-blue exclusion assay to verify the results obtained by XTT and MTS-based viability assays.
The HBB-mediated inhibitory activity was dose dependent (results not shown).

The subject of data set [2] is ERK1/2 phosphorylation in MicroNB cells. Nature of the data set: ERK1/2 phosphorylation (western blot), MicroNB cells. In kind it is cell-based, human. The following applies: HBB (1 μg) for 48 hr; in reference to total ERK2; FIG. 4A. On the procedure: Lysates of neuroblastoma cells and of mouse organs were resolved on SDS-PAGE after the addition of Laemmli sample buffer, and transferred onto nitrocellulose membrane. The total amount of protein in the lanes was assessed by Ponceau staining prior to blocking of the membrane. The membrane was blocked at room temperature with 3% BSA (Sigma-Aldrich) diluted in TBS-Tween (TBST) for 1 hr. For detection of the target proteins, membranes were incubated with relevant primary antibodies (see “Antibodies”), then washed 3 times×5 min with TBSTX1 and incubated with suitable HRP-conjugated secondary antibodies (see “Antibodies”). Membranes were washed again 5 times×3 min with TBSTX1. The bands were visualized by chemiluminescence-ECL reactions and autoradiography by exposure to Fuji film. The amount of the relevant protein in the lanes was estimated by densitometry using Scion Image software (Scion, Frederick, Md., USA).
Neuroblastoma cells (5×10^6) were plated and after 24 hr the growth medium was replaced with starvation medium (RPMI 0.5% FCS) for 24 hr. […] ERK1/2 phosphorylation was calculated in reference to total ERK2 protein, p38 and TAK1 phosphorylation was calculated in reference to total p38 and TAK1, respectively, as measured by densitometry using Scion Image software (Scion). […]
For orientation: In western blotting, separated proteins are transferred to a membrane and probed.

Data set [3] relates to Cyclin D1 expression in MicroNB cells. Nature of the data set: Cyclin D1 expression (western blot), MicroNB cells. Format: cell-based. The following applies: incubated with human HBB, 48 hr; in reference to beta-tubulin; FIG. 4C. On the procedure:
(§2) Lysates of neuroblastoma cells and of mouse organs were resolved on SDS-PAGE after the addition of Laemmli sample buffer, and transferred onto nitrocellulose membrane. The total amount of protein in the lanes was assessed by Ponceau staining prior to blocking of the membrane. The membrane was blocked at room temperature with 3% BSA (Sigma-Aldrich) diluted in TBS-Tween (TBST) for 1 hr. For detection of the target proteins, membranes were incubated with relevant primary antibodies (see “Antibodies”), then washed 3 times×5 min with TBSTX1 and incubated with suitable HRP-conjugated secondary antibodies (see “Antibodies”). Membranes were washed again 5 times×3 min with TBSTX1. […]
(§3) Neuroblastoma cells (5×10^6) were plated and after 24 hr cells were incubated for 48 hr with human HBB diluted in starvation medium (RPMI 5% BSA) to a concentration of 10 μg/ml. […] Cyclin D1 expression was calculated in reference to β-tubulin expression in the lane as measured by densitometry using Scion Image software (Scion).
(§4) Whole cell lysates of MicroNB and MacroNB cells incubated with human HBB were subjected to western blot analysis and immunostaining. […] Cyclin D1 expression was calculated in reference to beta-tubulin. […] Significance was evaluated using Student's t-test for each analysis after incubation with HBB compared to incubation with control media.

In data set [4] the test system is Cyclin D1 expression in MacroNB cells. Nature of the data set: Cyclin D1 expression (western blot), MacroNB cells. Format: cell-based. The following applies: incubated with human HBB, 48 hr; in reference to beta-tubulin; FIG. 4C. On the procedure:
as §2, §3, §4

Data set [5] deals with MacroNB cells. Put plainly: Cell cycle analysis by flow cytometry, MacroNB cells. The note with it: HBB (1 μg) for 48 hr. Format: cell-based, human. How it is done: Neuroblastoma cells (5×10^5) were plated and after 24 hr, cells were incubated for 48 hr with HBB diluted in starvation medium (RPMI 5% BSA) to a concentration of 10 μg/ml. Neuroblastoma cells incubated with starvation medium containing BSA alone served as control. Cells were pelleted, washed and resuspended in 0.5 ml PBSX1, containing 0.05 ml propidium iodide (PI) (P-4170, Sigma) (50 μg/ml), and 0.05 ml Triton X-100 (Sigma-Aldrich). Flow cytometry analysis was performed using Becton Dickinson FACSort and CellQuest software (Becton Dickinson, Mountain View, Calif.).
The cells were also subjected to measurement of cellular DNA content and cell cycle analysis using flow cytometry. Incubation with human HBB elevated the amount of MicroNB and MacroNB cells in the sub GO phase, by 18% and 11%, respectively (data not shown).

In data set [6] the test system is MicroNB cells (human neuroblastoma lung micrometastatic variant, MHH-NB11). Put plainly: MTS-based viability assay, MicroNB cells. The following applies: 10 μg human HBB, 72 hr, FIG. 3D. In kind it is cell-based.
Text: The human neuroblastoma lung micrometastatic (MicroNB) and macrometastatic (MacroNB) variants were generated using a mouse model for human neuroblastoma metastasis (Nevo et al., 2008) from the parental cell lines MHH-NB11 (Pietsch et al., 1988) and SH-SY5Y (Biedler et al., 1978) as detailed here (Edry Botzer et al., 2011), and were maintained in culture as previously described (Nevo et al., 2008). The MicroNB and MacroNB variants were previously designated DisNB and MetNB, respectively (Edry Botzer et al., 2011). Authentication of MicroNB and MacroNB cells was performed by short tandem repeat analysis of DNA using the Type-it Microsatellite PCR Kit (Qiagen, Valencia, Calif.), for the genes published by the American Type Culture Collection (ATCC) (Manassas, Va.). The parental cell line MHH-NB11 was kindly provided by Dr. T. Pietsch (Department of Neuropathology, University of Bonn Medical Center, Bonn, Germany).
as §1
Circular dichroism analysis of human hemoglobin (HB), hemoglobin subunit alpha (HBA) and subunit beta (HBB) indicated a helical structure for all three proteins (FIG. 3C). […] Neuroblastoma cells were seeded (3×10^4 per well) in a 96 well flat-bottomed tissue culture plate. After 24 hr of incubation cells were washed and incubated with human HBB dissolved in starvation medium (RPMI 5% BSA) to the indicated concentrations. Cell viability under normal conditions (starvation medium) or after incubation with human HBB was monitored after an incubation of 72 hr using an MTS-based viability assay (CellTiter 96® AQueous One Solution Cell Proliferation Assay, Promega) according to the manufacturer instructions. Data are means of three independent experiments±SD. Significance was evaluated using Student's t-test for each variant incubated with human HBB compared to incubation with control media (con).

As for “HBB: beta subunit of human hemoglobin, 147 amino acids, SEQ ID NO:2, HPLC-purified from native human hemoglobin”, in the data set with MacroNB cells [1], the “non-viable MacroNB cells following incubation” value is 8%. Moreover, in data set [2], the “ERK phosphorylation in MicroNB cells” value is listed as “decreased”. In addition, the “Cyclin-D1 expression in MicroNB cells” value in data set [3] was “significant decline”. In addition, in data set [4], the “Cyclin-D1 expression in MacroNB cells” value was “significant decline”. In addition, the “elevation of the amount of MacroNB cells in G0-G1 phase” value in the data set on MacroNB cells [5] (FIG. 4B) turned out to be 23%. The “elevation of the amount of MacroNB cells in the sub G0 phase” value with MacroNB cells [5] (data not shown) was 11%. The “decrease in viability of MicroNB cells” value in data set [6] was 52%.
